# Assay results as given in patent publication US9546173B2 (Novartis AG, priority 2012, dated 2017).
# Biological target: activated ERK2 (Homo sapiens (Human), UniProt P28482)
# Test: Activated ERK2 kinase assay (AlphaScreen, ERKtide peptide phosphorylation)
# Type: biochemical
# Conditions: […] ERK2, 200 nM ERKtide peptide, 35 μM ATP, 30 min preincubation; read-out: ERK2 IC50
# From the text: Production of Activated ERK2 Protein:
# Activated ERK2 protein was generated in insect cells by co-expression with a constitutively active form of MEK1. The ERK2 protein was expressed and purified as a nHis-PreScission-ERK2 tagged protein and then proteolytically processed to the full-length wild-type protein. […] Double-phosphorylated ERK2 protein was purified from the mixture by mono-Q column separation.
# Activated ERK2 Kinase Assay:
# A 16-point, half-log dilution series of compounds at 41× final concentration was used for generating IC50 curves. Compound dilution series were prepared in 100% DMSO. ERK2 was preincubated with compounds for 30 minutes at ambient temperature. Reaction was initiated by addition of a substrate cocktail of ERKtide peptide and ATP and was allowed to proceed for 2-3 hours at ambient temperature. Reaction was terminated by addition of 10 μL of a 2× stop buffer consisting of 100 mM Tris-Cl [pH 7.5], 25 mM EDTA, 0.01% Tween 20, 10 μg/mL of AlphaScreen Protein A Acceptor Beads, 10 μg/mL of Streptavidin Donor Beads (PerkinElmer, Waltham, Mass.), and 1.4 μg/mL phospho-EGF Receptor (Thr669) antibody (Cat #3056, Cell Signaling Technology, Danvers, Mass.). Terminated reactions were read, after overnight incubation in the dark, on an EnVision Multilabel Plate Reader (PerkinElmer, Waltham, Mass.), with excitation and emission wavelengths set to 680 nm and 570 nm, respectively. IC50 values were determined using a four-parameter fit.
# Sequence of activated ERK2 (P28482 whole entry): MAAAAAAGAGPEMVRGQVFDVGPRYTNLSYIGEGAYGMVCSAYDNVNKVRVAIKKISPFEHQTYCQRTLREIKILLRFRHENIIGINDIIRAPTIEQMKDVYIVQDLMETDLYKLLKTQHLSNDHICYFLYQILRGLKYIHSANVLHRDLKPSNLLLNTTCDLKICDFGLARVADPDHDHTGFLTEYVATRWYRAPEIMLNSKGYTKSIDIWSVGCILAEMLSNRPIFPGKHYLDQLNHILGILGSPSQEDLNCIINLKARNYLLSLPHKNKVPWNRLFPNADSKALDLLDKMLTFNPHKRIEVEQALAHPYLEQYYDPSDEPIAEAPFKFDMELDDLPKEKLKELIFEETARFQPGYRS
row,IC50,SMILES
1,317 nM,"CC1(C)c2cnc(NC3CC3)nc2CN1C(=O)N[C@H](CO)c1ccccc1 [compound 31, (S)-2-(cyclopropylamino)-N-(2-hydroxy-1-phenylethyl)-5,5-dimethyl-5H-pyrrolo[3,4-d]pyrimidine-6(7H)-carboxamide]"
2,14 nM,"CC1(C)c2cnc(NC3CCOCC3)nc2CN1C(=O)N[C@H](CN)c1ccccc1 [compound 32, (S)-N-(2-amino-1-phenylethyl)-5,5-dimethyl-2-((tetrahydro-2H-pyran-4-yl)amino)-5H-pyrrolo[3,4-d]pyrimidine-6(7H)-carboxamide]"
3,596 nM,"CC(C)[C@@H](C)NC(=O)N1Cc2nc(NC3CCOCC3)ncc2C1(C)C [compound 33, (R)-5,5-dimethyl-N-(3-methylbutan-2-yl)-2-((tetrahydro-2H-pyran-4-yl)amino)-5H-pyrrolo[3,4-d]pyrimidine-6(7H)-carboxamide]"
4,5440 nM,"CC1(C)c2cnc(NC3CCOCC3)nc2CN1C(=O)NCc1cc[nH]c(=O)c1 [compound 34, 5,5-dimethyl-N-((2-oxo-1,2-dihydropyridin-4-yl)methyl)-2-((tetrahydro-2H-pyran-4-yl)amino)-5H-pyrrolo[3,4-d]pyrimidine-6(7H)-carboxamide]"
5,106 nM,"CC1(C)c2cnc(NC3CCOCC3)nc2CN1C(=O)NCc1ccc(Cl)cn1 [compound 35, N-((5-chloropyridin-2-yl)methyl)-5,5-dimethyl-2-((tetrahydro-2H-pyran-4-yl)amino)-5H-pyrrolo[3,4-d]pyrimidine-6(7H)-carboxamide]"
6,17 nM,"CC1(C)c2cnc(NC3CCOCC3)nc2CN1C(=O)NC1(c2ccccc2)CC1 [compound 36, 5,5-dimethyl-N-(1-phenylcyclopropyl)-2-((tetrahydro-2H-pyran-4-yl)amino)-5H-pyrrolo[3,4-d]pyrimidine-6(7H)-carboxamide]"
7,541 nM,"CC1(C)c2cnc(NC3CCOCC3)nc2CN1C(=O)NCC1CC1 [compound 37, N-(cyclopropylmethyl)-5,5-dimethyl-2-((tetrahydro-2H-pyran-4-yl)amino)-5H-pyrrolo[3,4-d]pyrimidine-6(7H)-carboxamide]"
8,516 nM,"CC1(C)c2cnc(NC3CCOCC3)nc2CN1C(=O)N[C@H]1c2ccccc2C[C@H]1O [compound 38, N-((1S,2R)-2-hydroxy-2,3-dihydro-1H-inden-1-yl)-5,5-dimethyl-2-((tetrahydro-2H-pyran-4-yl)amino)-5H-pyrrolo[3,4-d]pyrimidine-6(7H)-carboxamide]"
9,< 25000 nM,"CC1(C)c2cnc(NC3CCOCC3)nc2CN1C(=O)N[C@@H]1c2ccccc2C[C@@H]1O [compound 39, N-((1R,2S)-2-hydroxy-2,3-dihydro-1H-inden-1-yl)-5,5-dimethyl-2-((tetrahydro-2H-pyran-4-yl)amino)-5H-pyrrolo[3,4-d]pyrimidine-6(7H)-carboxamide]"
10,799 nM,"C[C@H](NC(=O)N1Cc2nc(NC3CCOCC3)ncc2C1(C)C)c1ccccc1 [compound 40, (S)-5,5-dimethyl-N-(1-phenylethyl)-2-((tetrahydro-2H-pyran-4-yl)amino)-5H-pyrrolo[3,4-d]pyrimidine-6(7H)-carboxamide]"
11,13 nM,"CC1(C)c2cnc(NC3CCOCC3)nc2CN1C(=O)N[C@@H]1CCCN(S(=O)(=O)c2ccccc2F)C1 [compound 41, (R)-N-(1-((2-fluorophenyl)sulfonyl)piperidin-3-yl)-5,5-dimethyl-2-((tetrahydro-2H-pyran-4-yl)amino)-5H-pyrrolo[3,4-d]pyrimidine-6(7H)-carboxamide]"
12,27 nM,"CC1(C)c2cnc(NC3CCOCC3)nc2CN1C(=O)N[C@@H]1CCCN(S(=O)(=O)c2ccccc2)C1 [compound 42, (R)-5,5-dimethyl-N-(1-(phenylsulfonyl)piperidin-3-yl)-2-((tetrahydro-2H-pyran-4-yl)amino)-5H-pyrrolo[3,4-d]pyrimidine-6(7H)-carboxamide]"
